According to patent US6518062B1, “Enzyme combinations for destroying proliferative cells” (priority 1996, dated 2003):
Values joined by “and” are separate entries in the source; they are usually repeats but may differ in a detail not shown here. Equal entries are not always repeated. Marks after values point to notes of the source that are not given here.

What was measured:
[1] = biological target: T1, Human guanylate kinase (erythrocytes) (Homo sapiens, UniProt Q16774); details: human erythrocyte GMPK, published values a, c, cited from earlier work; for Km: b
T1 construct: enzymatic preparations of guanylate kinase and of nucleoside diphosphate kinase of human erythrocytes; host or cells: human erythrocytes
T1 sequence (Q16774 1-197): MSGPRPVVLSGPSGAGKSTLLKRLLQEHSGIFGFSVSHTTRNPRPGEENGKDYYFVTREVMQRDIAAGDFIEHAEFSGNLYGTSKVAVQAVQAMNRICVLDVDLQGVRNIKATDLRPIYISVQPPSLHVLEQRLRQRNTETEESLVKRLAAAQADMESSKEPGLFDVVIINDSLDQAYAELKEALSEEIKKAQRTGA

[2] = biological target: T2, Yeast guanylate kinase (S. cerevisiae) (Saccharomyces cerevisiae, UniProt P15454); assay: Kinetic constants of yeast guanylate kinase for GCVMP and ACVMP; type: biochemical; details: for Km / Vmax: yeast GMPK, 30° C., pH 7.8, 4 mM ATP
T2 sequence (P15454 1-187): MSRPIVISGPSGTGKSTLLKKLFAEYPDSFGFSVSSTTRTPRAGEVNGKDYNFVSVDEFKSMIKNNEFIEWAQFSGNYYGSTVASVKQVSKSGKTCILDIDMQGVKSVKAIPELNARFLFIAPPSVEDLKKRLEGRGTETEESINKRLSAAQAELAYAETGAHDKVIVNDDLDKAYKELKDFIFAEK
Experimental: The kinetic constants for the yeast GMP kinase purified as described in Example 3 are determined under the following enzymatic assay conditions: The yeast GMP kinase is incubated for 10 min at 30° C. in 100 μl of 50 mM Tris/HCl buffer pH 7.8 containing 4 mM ATP, 10 mM MgCl2, 100 mM KCl, 1 mg/ml BSA (bovine serum albumin) and 5-100 μ[…] (40 nCi/nmol) or 200-3200 μ[…] (40 nCi/nmol). he reaction is stopped by heating the reaction mixture for 3 min at 80° C., 50 μl of 10 mM potassium phosphate buffer pH 3.5 are added, and after centrifugation for 2 min at 10,000×g, 100 μl of supernatant are analysed by high performance liquid chromatography (HPLC) in the following system: for the calculation of the kinetic constants, the quantity of yeast GMP kinase introduced into the enzymatic reaction is adjusted so as to convert at most 10% of the substrate initially introduced. The Michaelis curves are adjusted to the experimental points with the aid of the Grafit software (Sigma). […] For substrates entering into competition, the Vmax/Km constant determines the specificity of the enzyme for these substrates. It is known by the name of “specificity constant” [A. Fersht, Enzyme Structure and Mechanism, 1985, W. H. Fréeman and Co., London].

[3] = tested on: Mixture 2-865:H12/GMPK; assay: Phosphorylation to diphosphate by mixture of 2-865:H12 and GMPK; type: biochemical
Experimental: The capacity of the TK-GMPK fusion protein to convert GCV or ACV to GCVDP or ACVDP compared with a synthetic mixture of TK and GMPK is determined in the following manner:
(§1) The reaction is stopped by heating for 3 min at 80° C.; after centrifugation, 100 μl of incubation product are analyzed in the following system: […]

[4] = biological target: T3, HSV1-TK, GMPK and human (erythrocyte) NDPK (Human herpesvirus 1, UniProt P0DTH5); assay: TK-GMPK-NDPK coupling with human erythrocyte NDPK; type: biochemical; details: substrate 100 μM
T3 construct: purchased SIGMA; host or cells: human erythrocytes (NDPK)
Experimental: (§2) In a preferred coupling mode, the incubation is carried out in 100 μl of 50 mM Tris/HCl buffer pH 7.8, containing 1 mg/ml of BSA (bovine serum albumin), 5 mM ATP, 4 mM MgCl2, 12 mM KCl, 2 mM DTT, 600 μM EDTA, 100 μM [8-3H]-GCV (40 nCi/nmol) or 100 μM [2-3H]-ACV 40 nCi/nmol and various quantities of TK, GuK and NDPK (cf Table 2).

[5] = biological target: T4, HSV1-TK/S. cerevisiae GMPK fusion protein (UniProt P0DTH5+P15454, V34A); assay: Phosphorylation to diphosphate by TK-GMPK fusion protein; type: biochemical, herpes simplex virus type 1; S. cerevisiae
T4 construct: made in house; host or cells: E. coli BL21 DE3 pXL3098 (pET11a)
T4 sequence (P0DTH5+P15454 with tags, fused parts or gaps P15454:V34A): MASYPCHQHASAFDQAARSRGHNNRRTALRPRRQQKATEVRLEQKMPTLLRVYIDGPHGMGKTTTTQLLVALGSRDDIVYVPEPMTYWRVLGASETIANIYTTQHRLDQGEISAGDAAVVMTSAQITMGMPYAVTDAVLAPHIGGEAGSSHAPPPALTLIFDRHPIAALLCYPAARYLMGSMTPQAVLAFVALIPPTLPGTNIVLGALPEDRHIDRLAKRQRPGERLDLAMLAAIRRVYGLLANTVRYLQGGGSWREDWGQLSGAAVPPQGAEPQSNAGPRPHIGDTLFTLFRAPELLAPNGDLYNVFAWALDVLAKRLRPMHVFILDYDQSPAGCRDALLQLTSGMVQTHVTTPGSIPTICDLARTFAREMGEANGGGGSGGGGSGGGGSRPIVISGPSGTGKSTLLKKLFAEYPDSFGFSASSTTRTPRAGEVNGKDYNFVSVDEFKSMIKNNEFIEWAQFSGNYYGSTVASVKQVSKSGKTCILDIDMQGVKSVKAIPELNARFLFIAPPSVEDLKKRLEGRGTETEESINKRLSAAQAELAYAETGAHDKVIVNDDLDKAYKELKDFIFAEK
Experimental: as §1

[6] = biological target: Mixture wild type TK/GMPK (Human herpesvirus 1, UniProt P0DTH5); type: biochemical, herpes simplex virus type 1; S. cerevisiae; details: Mixture wild type/GMPK 1.66/0.33 μg; GCV 100 μM
Experimental: as §1

[7] = tested on: mice; details: mouse, in vivo, 150 mg/kg; cited from earlier work
[8] = biological target: T5, HSV1-TK, GMPK and baker's yeast NDPK (Human herpesvirus 1, UniProt P0DTH5); assay: TK-GMPK-NDPK coupling with baker's yeast NDPK; type: biochemical, herpes simplex virus type 1; S. cerevisiae; details: substrate 100 μM
T5 construct: purchased SIGMA

[9] = tested on: glioma; details: rats having a glioma, HSV1-TK gene expressed, 150 mg/kg doses injected; cited from earlier work
[10] = biological target: T6, HSV1-TK, GMPK and bovine (liver) NDPK (Human herpesvirus 1, UniProt P0DTH5); assay: TK-GMPK-NDPK coupling with bovine liver NDPK; type: biochemical; details: substrate 100 μM
T6 construct: purchased SIGMA; host or cells: bovine liver (NDPK)
Experimental: as §2

[11] = biological target: HSV1-TK and GMPK from S. cerevisiae (Human herpesvirus 1, UniProt P0DTH5); assay: TK-GMPK coupling, % of products formed; type: biochemical, herpes simplex virus type 1; S. cerevisiae; details: for % of the products formed, NMP / % of the products formed, NDP: substrate 100 μM
Experimental: as §2

[12] = TK 10.4 μg, GMPK 7.4 μg, human NDPK 0.675 μg, 20 min
[13] = TK 10.4 μg, GMPK 7.4 μg, human NDPK 6.75 μg, 30 min
[14] = TK 1.3 μg, GMPK 2.5 μg, yeast NDPK 0.75 μg, 60 min
[15] = TK 10.4 μg, GMPK 7.4 μg, yeast NDPK 0.75 μg, 20 min
[16] = TK 10.4 μg, GMPK 7.4 μg, yeast NDPK 1.5 μg, 30 min
[17] = TK 10.4 μg, GMPK 7.4 μg, bovine NDPK 0.5 μg, 20 min
[18] = TK 10.4 μg, GMPK 7.4 μg, bovine NDPK 5 μg, 30 min
[19] = TK 10.4 μg, GMPK 7.4 μg, 30 min
[20] = TK 11.7 μg, GMPK 74 μg, human NDPK 6.75 μg, 30 min
[21] = TK 11.7 μg, GMPK 74 μg, yeast NDPK 1.5 μg, 20 min
[22] = TK 11.7 μg, GMPK 74 μg, yeast NDPK 15 μg, 30 min
[23] = TK 11.7 μg, GMPK 74 μg, bovine NDPK 5 μg, 30 min

ganciclovir monophosphate [GCVMP]
Km [1]: 42 to 54 µM and 40 µM
Vmax [1]: 20^a μmol/min/mg
Km [2]: 18 µM
Vmax [2]: 40 µmol/min/mg
phosphorylation rate of yeast guanylate kinase relative to human enzyme ([2]; yeast vs human GMPK): twice as high

Nc1nc(O)c2ncn(COC(CO)CO)c2n1 [GCV, ganciclovir]
GCVDP formed ([3]; Mixture 2-865: H12/GMPK 1.66/0.33 μg, GCV 50 μM): 5300** pmmol
% of the products formed, NDP [4, 12]: 90.3%
% of the products formed, NMP [4, 12]: 6.2%
% of the products formed, NTP [4, 12]: 1.5%
% of the products formed, NDP [4, 13]: 71.1%
% of the products formed, NMP [4, 13]: 2.5%
% of the products formed, NTP [4, 13]: 24%
GCVDP formed ([5]; Fusion 2 μg, GCV 50 μM): 4900** pmmol
GCVDP formed ([5]; Fusion 2 μg, GCV 100 μM): 8270** pmmol
improvement in phosphorylation by TK-GMPK fusion protein, factor ([5]; compared with coincubation of wild-type TK enzyme and GMPK enzyme): ≤ 1.8
GCVDP formed [6]: 4660** pmmol
toxicity [7]: highly toxic
% of the products formed, NDP [8, 14]: 13.8%
% of the products formed, NMP [8, 14]: 3.2%
% of the products formed, NDP [8, 15]: 12.6%
% of the products formed, NMP [8, 15]: 2.6%
% of the products formed, NDP [8, 16]: 6.9%
% of the products formed, NMP [8, 16]: 0.9%
% of the products formed, NTP [8, 16]: 91.1%
tumour response [9]: regressions of tumour
% of the products formed, NDP [10, 17]: 78.4%
% of the products formed, NMP [10, 17]: 6.5%
% of the products formed, NTP [10, 17]: 12.9%
% of the products formed, NDP [10, 18]: 5.8%
% of the products formed, NMP [10, 18]: 0.6%
% of the products formed, NTP [10, 18]: 92%
phosphorylation of ganciclovir to ganciclovir diphosphate ([11]; coupling of HSV1-TK and GMPK from S. cerevisiae): 90%
% of the products formed, NMP ([11]; TK 1.3 μg, GMPK 2.5 μg, 60 min): 4.4%
% of the products formed, NDP ([11]; TK 2.6 μg, GMPK 2.5 μg, 30 min): 89.0%
% of the products formed, NMP ([11]; TK 2.6 μg, GMPK 2.5 μg, 30 min): 7.5%
% of the products formed, NDP [11, 19]: 90.8%
% of the products formed, NMP [11, 19]: 5.3%

acyclovir monophosphate [ACVMP]
Km [1]: 218 µM and 209 to 753 µM and 330 µM
Vmax [1]: 1.9^a μmol/min/mg and 3.6^c μmol/min/mg
Km [2]: 280 µM
Vmax [2]: 22 µmol/min/mg

Nc1nc2c(ncn2COCCO)c(=O)[nH]1 [ACV, acyclovir]
GCVDP formed ([3]; Mixture 2-865/H12/GMPK 133/66 μg, ACV 100 μM): 17260** pmmol
GCVDP formed ([3]; Mixture 2-865: H12/GMPK 33/17 μg, ACV 20 μM): 2325** pmmol
GCVDP formed ([3]; Mixture 2-865: H12/GMPK 33/17 μg, ACV 50 μM): 3680** pmmol
GCVDP formed ([3]; Mixture 2-865: H12/GMPK 33/17 μg, ACV 50 μM Incub 1 h): 5890** pmmol
% of the products formed, NDP [4, 20]: 80.0%
% of the products formed, NMP [4, 20]: 1.8%
GCVDP formed ([5]; Fusion 50 μg, ACV 20 μM): 1220** pmmol
GCVDP formed ([5]; Fusion 50 μg, ACV 50 μM): 2920** pmmol
GCVDP formed ([5]; Fusion 50 μg, ACV 50 μM Incub 1 h): 6740** pmmol
GCVDP formed ([5]; Fusion 200 μg, ACV 100 μM): 18500** pmmol
% of the products formed, NDP [8, 21]: 60.0%
% of the products formed, NMP [8, 21]: 13.0%
% of the products formed, NTP [8, 21]: 8%
% of the products formed, NDP [8, 22]: 4.6%
% of the products formed, NMP [8, 22]: 1.4%
% of the products formed, NTP [8, 22]: 81%
% of the products formed, NDP [10, 23]: 82.0%
% of the products formed, NMP [10, 23]: 1.7%
% of the products formed, NTP [10, 23]: 1.3%
% of the products formed, NDP ([11]; TK 11.7 μg, GMPK 74 μg, 20 min): 54%
% of the products formed, NMP ([11]; TK 11.7 μg, GMPK 74 μg, 20 min): 26.0%
